{"source": "patent US11951151B2", "about": "“Compositions comprising antimicrobial peptides” (University of Pittsburgh—Of the Commonwealth System of …, priority 2019, dated 2024)", "key": {"[1]": {"test_system": "S. aureus SH1000 mature biofilms", "assay": "S. aureus biofilm implant in vitro killing assay (mature biofilm on Kirschner wire, CFU analysis)", "type": "cell-based, Staphylococcus aureus", "details": "for time to achieve 99.9% reduction of biofilm CFU compared to untreated implant pieces: treated in MHB media", "experimental": "(§1) Bacterial strains and culture. S. aureus SH1000 was used for in vitro assays and the PJI animal model. SH1000 was inoculated in Tryptic Soy Broth (TSB, Becton Dickinson and Company) overnight at 37° C. with shaking at 250 rpm. Strains were diluted in Mueller Hinton Broth (MHB; Bectin Dickinson and Company) to a final concentration of 0.5×10^6 CFU/ml using the 0.5 MacFarland Standard (GFS Chemicals) and an Infinite M200 Spectrophotometer (Tecan). WLBU-2 (PLG0206) was supplied by Peptilogics (San Jose, California). All experiments were performed at least in triplicate at three separate times with freshly inoculated cultures.\nS. aureus biofilm implant in vitro killing assays. Implant material was prepared from 0.6 mm diameter stainless steel Kirschner wire (Synthes) and cut into 6 mm length, autoclaved, and plated in wells along with SH1000 and all clinical strains at 1×10^6 CFU/ml. After plating, fresh MHB media was exchanged at 24 hours. At 48 hours, wire with mature biofilms were either placed into fresh MHB with either cefazolin or WLBU-2. Biofilms were treated with cefazolin at 0.13, 0.25, 0.5, and 1 mg/ml or WLBU-2 at 62, 125, 250, and 500 μg/ml. Cefazolin treated biofilm were removed 2, 6, and 24 hours after drug addition, WLBU-2 treated biofilm were removed 5 min, 20 min, 60 min, and 2 hours after drug addition. After treatment, Kirschner wires were placed in 1 ml of 1% Tween 20 and sonicated for 10 minutes. Sonicate was serially diluted and plated on TSA II with 5% sheep blood CS100 plates blood agar for colony forming unit (CFU) analysis. For pH analysis, prior to WLBU-2 addition, PBS was adjusted to more acidic pH using hydrochloric acid and more alkaline pH using ammonium hydroxide. Infected implant pieces were tested with WLBU-2 at both 0.5 and 1.0 μg/ml in PBS adjusted to pH of 6.5, 6.8, 7.0, 7.2, 7.4, and 8.0. Biofilm implant pieces were treated at very early time points of 2.5-20 minutes, then CFU analysis was performed.\nas §1, with “Becton” for “Bectin”\nS. aureus biofilm implant in vitro killing assays. Implant material was prepared from 0.6 mm diameter stainless steel Kirschner wire (Synthes) and cut into 6 mm length, autoclaved, and plated in wells along with SH1000 and all clinical strains at 1×10^6 CFU/ml. After plating, fresh MHB media was exchanged at 24 hours. At 48 hours, wire with mature biofilms were either placed into fresh MHB, normal saline, lactated ringers, or dPBS with fold dilutions of WLBU-2 at 62, 125, 250, 500, and 1000 μg/ml. dPBS solutions were prepared using any combination of the salt buffers listed in Table 3, dissolved in sterile, deionized water. After treatment, Kirschner wires were placed in 1 ml of 1% Tween 20 in dPBS and sonicated for 10 minutes. Sonicate was serially diluted and plated on TSA II with 5% sheep blood CS100 plates blood agar for colony forming unit (CFU) analysis. For pH analysis, prior to WLBU-2 addition, dPBS was adjusted to more acidic pH using hydrochloric acid and more alkaline pH using ammonium hydroxide. Infected implant pieces were tested with WLBU-2 at both 0.5 and 1.0 mg/ml in PBS adjusted to pH of 6.5, 6.8, 7.0, 7.2, 7.4, and 8.0. For ionic strength analysis, dPBS was adjusted to hypertonic conditions by addition of NaCl to dPBS (0.3 M) and hypotonic conditions by addition of deionized water to dPBS (0.08 M). […]"}, "[2]": {"test_system": "S. aureus (strain: SH1000)", "assay": "Rabbit PJI model, I&D with PLG0206 and/or systemic cefazolin, implant and tibia CFU up to Day 28", "type": "in vivo, Staphylococcus aureus", "experimental": "(§2) A PJI New Zealand White Rabbit Animal model was used. A 3D printed tibia titanium implant was placed in the knee, and inoculated with S. aureus (strain: SH1000, inoculation density 2×10^6) after closure of the arthrotomy.\n(§3) The rabbit is anesthetized with ketamine 40 mg/kg and xylazine 2 mg/kg during surgery. A bone tunnel in the tibial canal is created using a drill with a 1.2 mm or 1.6 mm tungsten carbide drill bit. The bone tunnel is then dried and treated to simulate acute human PJI following primary arthroplasty. A 3D printed titanium implant will then be placed in the bone tunnel and the wound closed. Prior to closure of the superficial skin layer, 0.1 mL of 2×10^6 planktonic bacteria (S. aureus; strain: SH1000; CFU/rabbit) in saline is injected into the joint space. A closure is performed, and a biofilm is allowed to become established over 2 days.\nAt 2 days post infection I&D will be performed on the infected joint and treatments will begin. Animals will receive treatment with an I&D alone, I&D with PLG0206, systemic treatment with cefazolin, or both PLG0206 and cefazolin When an animal dies or is sick and needs to be euthanized, the implant and a part of the tibia will be collected post mortem and bacterial burden will be determined by CFU. All surviving animals will be euthanized on Day 28 and the implant and tibia will be collected post mortem for CFU analysis."}, "[3]": {"test_system": "S. aureus SH1000 biofilm on PJI implant", "assay": "Periprosthetic Joint Infection Murine Washout Model (implant retrieved from mice, washed with peptide, CFU analysis)", "type": "in vivo, Staphylococcus aureus", "details": "mouse", "source_text": "Periprosthetic Joint Infection Murine Washout Model. Twelve-week-old […] female mice (Jackson) were used for all experiments. Mice were anesthetized by 2% isoflurane, hair was removed from leg and treated with betadine. With a scalpel, a medial parapatellar incision was made, and lateral displacement of the quadriceps-patellar complex allowed for visualization of the femoral intercondylar notch. With a 25-gauge needle, the femoral intramedullary canal was manually reamed. Mature S. aureus biofilm previously established on a 0.6 mm wide/6 mm long Kirschner wire (Synthes) was inserted into the reamed canal, and sutured closed. 48 hours later, mice were euthanized and the infected Kirschner wire implant were extracted, placed in WLBU-2 at 1.0 mg/ml in PBS previously pH adjusted to 6.5, 7.0, 7.2, or 7.4 for 10 minutes, and then placed 1% Tween 20 on ice. Implants were sonicated for 10 minutes. Samples were serially diluted and plated on TSA II with 5% sheep blood CS100 plates for CFU analysis."}, "[4]": {"test_system": "S. aureus (strain: SH1000)", "assay": "Rabbit periprosthetic joint infection (PJI) model, ex vivo or in vivo treatment at I&D 2 days post infection, implant CFU", "parameters": "species or system Staphylococcus aureus", "experimental": "as §2, §3\nAfter 48 hours, animals were sacrificed and the implants were exposed to either topical cefazolin (10 mg/kg) or topical WLBU2 (1 mg/mL) in PBS (pH 7.4). Implants were sonicated 10 minutes, and colony forming unit (CFU) assay was performed on blood agar plates to quantify bacterial burden.\nAt 2 days post infection irrigation and debridement (I&D) was performed on the infected joint. Treatment with PLG0206 was administered at 1 mg/mL concentration (ex vivo or in vivo) and 0.5 mg/mL concentration (in vivo) at 15 (ex vivo and in vivo), and 7.5 minutes (in vivo) exposure times. For the ex vivo administration, the implant was removed and exposed to PLG0206 solution in a tube for 15 minutes. For the in vivo administration, irrigation and debridement on the joint was performed followed by PLG0206 treatment. The animals were euthanized after treatment, and the implants removed post mortem."}}, "note": "Entries after “also recorded” stand apart in the source; their conditions may differ.", "data": [{"molecule": "Cc1nnc(SCC2=C(C(=O)O)N3C(=O)[C@@H](NC(=O)Cn4cnnn4)[C@H]3SC2)s1", "note": "[Cefazolin, reference compound]", "values": [{"measurement": "decrease in biofilm CFU over 6 hours", "setting": "[1]; MHB, 6 hours", "result": "only a modest decrease"}, {"measurement": "time to achieve 99.9% reduction of biofilm CFU compared to untreated implant pieces", "setting": "[1]", "result": "over 24 hours"}, {"measurement": "reduction in bacterial burden", "setting": "[2]; cefazolin treatment alone (Group 2)", "result": 1.5, "unit": "log"}]}, {"molecule": "WLBU-2: RRWVRRVRRVWRRVVRVVRRWVRR (SEQ ID NO: 10); synthetically engineered cationic antimicrobial peptide (RRWVRRVRRVWRRVVRVVRRWVRR; Antimicrobial peptide WLBU-2)", "values": [{"measurement": "contact time needed to achieve a three-log reduction in biofilm CFU", "setting": "[1]; 1.0 mg/ml in 6.5 pH PBS", "result": 15, "unit": "minutes"}, {"measurement": "contact time needed to achieve a three-log reduction in biofilm CFU", "setting": "[1]; 1.0 mg/ml in 8.0 pH PBS", "result": 2.5, "unit": "minutes"}, {"measurement": "biofilm CFU after treatment (sterile samples)", "setting": "[1]; PBS pH 7.4", "result": 0, "unit": "CFU"}, {"measurement": "biofilm CFU after treatment (sterile samples)", "setting": "[1]; PBS pH 8.0", "result": 0, "unit": "CFU"}, {"measurement": "reduction in biofilm CFU", "setting": "[1]; dPBS at pH 7.5, 10 minutes, 62, 125, 250, 500 and 1000 μg/mL", "result": "three-log reduction or greater; also recorded: three-log reduction"}, {"measurement": "reduction in bacterial biofilm", "setting": "[1]; dPBS, pH 7.0, 62-1000 μg/ml, 10 minutes", "result": "over 99.9%"}, {"measurement": "reduction in biofilm CFU", "setting": "[1]; hypertonic dPBS at pH 7.5, 10 minutes", "result": "a three-log reduction was not achieved"}, {"measurement": "biofilm CFU after treatment", "setting": "[1]; hypotonic dPBS at pH 7.5, 10 minutes, 62, 125, 250, 500 and 1000 μg/mL", "result": 0, "unit": "CFU"}, {"measurement": "time needed to obtain 0 CFU sterile samples, compared to hypertonic dPBS", "setting": "[1]; hypotonic dPBS of 0.08 M", "result": "less time needed"}, {"measurement": "time needed to obtain a three-log reduction, compared to hypertonic dPBS", "setting": "[1]; hypotonic dPBS of 0.08 M", "result": "less time needed"}, {"measurement": "time to achieve a 99.9% reduction in biofilm CFU", "setting": "[1]; in buffered PBS, doses of 62-1000 μg/ml", "result": "≤ 20", "unit": "min"}, {"measurement": "reduction in bacterial biofilm", "setting": "[1]; lactated ringers, pH 6.5, 62-1000 μg/ml, 10 minutes", "result": "over 99.9%"}, {"measurement": "reduction in bacterial biofilm CFUs", "setting": "[1]; normal saline, measured pH of 5.8, 62-1000 μg/ml, 10 minutes", "result": "~99", "unit": "%"}, {"measurement": "contact time needed to obtain above a 99.9% clearance of biofilms", "setting": "[1]; pH of the washout solution above 7.0", "result": "under 5 minutes"}, {"measurement": "time to achieve 99.9% reduction of biofilm CFU compared to untreated implant pieces", "setting": "[1]", "result": "under 2 hours"}, {"measurement": "biofilm CFU on PJI implant compared to No Drug group", "setting": "[3]; 1.0 mg/ml in PBS pH 7.0, 10 minutes", "result": "significant reduction"}, {"measurement": "biofilm CFU on PJI implant compared to No Drug group", "setting": "[3]; 1.0 mg/ml in PBS pH 7.2, 10 minutes", "result": "significant reduction"}, {"measurement": "biofilm CFU on PJI implant compared to No Drug group", "setting": "[3]; 1.0 mg/ml in PBS pH 7.4, 10 minutes", "result": "significant reduction"}, {"measurement": "biofilm CFU on PJI implant, washout with 7.4 pH compared to washout with 6.5 pH", "setting": "[3]; 1.0 mg/ml in PBS, 10 minutes", "result": "significantly less; also recorded: significant reduction"}, {"measurement": "reduction in bacterial burden in comparison to control", "setting": "[4]; ex vivo treatment, 1 mg/mL, 15 minutes", "result": "greater than 2 log"}, {"measurement": "reduction in bacterial burden, 1 mg/ml for 15 minutes in comparison to 0.5 mg/ml", "setting": "[4]; in vivo study", "result": "significantly greater reduction"}, {"measurement": "reduction in bacterial burden in comparison to control", "setting": "[4]; in vivo treatment after I&D", "result": "greater than 2 log"}, {"measurement": "reduction in bacterial burden", "setting": "[2]; 1 mg/ml PLG0206 in combination with cefazolin (Group 4)", "result": 2.5, "unit": "log"}, {"measurement": "bacterial burden in comparison to control", "setting": "[2]; 1 mg/ml treatment alone (Group 3)", "result": "not significant"}]}]}
